Laboratory results from paper PMC6152127, “Facile Synthesis of Novel Coumarin Derivatives, Antimicrobial Analysis, Enzyme Assay, Docking Study, ADMET Prediction and Toxicity Study” (Molecules : A Journal of Synthetic Chemistry and Natural …, 2017).
Converted amounts (≈) assume the structure as drawn.

Legend:
[1] = tested on: Aspergillus flavus (NCIM-539); experiment: In vitro antifungal activity, MIC, agar method (CLSI); type: cell-based; settings: NCIM539, average of three readings
Experimental: (§1) The newly synthesized 3-((dicyclohexylamino)(substituted phenyl/heteryl)methyl)-4-hydroxy-2H-chromen-2-one derivatives 4a–o were screened for their in vitro antifungal activity against different yeast and filamentous fungal pathogens. […] Dimethyl sulfoxide (DMSO) was used as solvent control.
(§2) All the synthesized compounds were screened for their in vitro antifungal and antibacterial activity. The antibacterial activity was evaluated against three human pathogenic bacterial strains: Escherichia coli (NCIM-2256), Bacillus subtilis (NCIM-2063) and Staphylococcus aureus (NCIM-2901). The antifungal activity was evaluated against seven human pathogenic fungal strains: Candida albicans (NCIM-3471), Candida glabrata (NCYC-388), Fusarium oxysporum (NCIM-1332), Aspergillus fumigates (NCIM-902), Aspergillus flavus (NCIM-539), Aspergillus niger (NCIM-1196) and Cryptococcus neoformans (NCIM-576), which are often encountered clinically. […] Minimum inhibitory concentration (MIC) values were determined as per CLSI guidelines. Dimethyl sulfoxide (DMSO) was used as solvent control.
(§3) Antifungal activity was determined as per CLSI (formerly, NCCLS) guidelines. […] The medium yeast nitrogen base was dissolved in phosphate buffer pH 7 and it was autoclaved at 110 °C for 10 min. With each set a growth control without the antifungal agent and solvent control DMSO were included. The fungal strains were freshly sub cultured on to Sabouraud dextrose agar (SDA) and incubated at 25 °C for 72 h. The fungal cells were suspended in sterile distilled water and diluted to get 10^5 cells/mL. Ten μL of the standardized suspension was inoculated onto the control plates and the media incorporated with the antifungal agents. The inoculated plates were incubated at 25 °C for 48 h. The readings were taken at the end of 48 h and 72 h. The MIC was the lowest concentration of drug preventing growth of macroscopically visible colonies on drug containing plates when there was visible growth on the drug free control plates.

[2] = tested on: Aspergillus fumigates (NCIM-902); experiment: as above; type: cell-based; settings: NCIM902, average of three readings
Experimental: as §1, §2, §3

[3] = tested on: Aspergillus niger (NCIM-1196); experiment: as above; type: cell-based; settings: NCIM1196, average of three readings
Experimental: as §1, §2, §3

[4] = tested on: Candida albicans (NCIM-3471); experiment: as above; type: cell-based; settings: NCIM3471, average of three readings
Experimental: as §1, §2, §3

[5] = tested on: Candida glabrata (NCYC-388); experiment: as above; type: cell-based; settings: Nakaseomyces glabratus; average of three readings
Experimental: as §1, §2, §3

[6] = tested on: Cryptococcus neoformans (NCIM-576); experiment: as above; type: cell-based; settings: NCIM576, average of three readings
Experimental: as §1, §2, §3

[7] = tested on: Fusarium oxysporum (NCIM-1332); experiment: as above; type: cell-based; settings: NCIM1332, average of three readings
Experimental: as §1, §2, §3

[8] = tested on: Bacillus subtilis (NCIM-2063); experiment: In vitro antibacterial activity, MIC; type: cell-based; settings: average of three readings; for MIC: Bacillus subtilis, NCIM2063
Experimental: (§4) The newly synthesized compounds 4a–o were screened for their in vitro antibacterial activity against the three different bacterial strains. Minimum inhibitory concentration (MIC) values for antibacterial activity were determined by standard agar method using Ampicillin as standard drug. Dimethyl sulfoxide (DMSO) was used as solvent control. […] Compound 4e bearing a 2,4-difluoro group on the phenyl ring was 48 µg/mL for E. coli, 50 µg/mL for B. subtilis and 52 µg/mL for S. aureus.
(§5) All the synthesized compounds were screened for their in vitro antifungal and antibacterial activity. The antibacterial activity was evaluated against three human pathogenic bacterial strains: Escherichia coli (NCIM-2256), Bacillus subtilis (NCIM-2063) and Staphylococcus aureus (NCIM-2901). The antifungal activity was evaluated against seven human pathogenic fungal strains: Candida albicans (NCIM-3471), Candida glabrata (NCYC-388), Fusarium oxysporum (NCIM-1332), Aspergillus fumigates (NCIM-902), Aspergillus flavus (NCIM-539), Aspergillus niger (NCIM-1196) and Cryptococcus neoformans (NCIM-576), which are often encountered clinically. Miconazole was used as standard drug. Minimum inhibitory concentration (MIC) values were determined as per CLSI guidelines. Dimethyl sulfoxide (DMSO) was used as solvent control.
(§6) All the synthesized compounds 4a–o were screened for their in vitro antibacterial activity. Minimum inhibitory concentration (MIC) values were determined using method recommended by National Committee for Clinical Laboratory Standards (NCCLS). In vitro antibacterial activities of the synthesized compounds 4a–o were tested in Nutrient Broth (NB) for bacteria by the two fold serial dilution method. Seeded broth (broth containing microbial spores) was prepared in NB from 24 h old bacterial cultures on nutrient agar (Hi-media) at 37± 1 °C. The bacterial suspension was adjusted with sterile saline to a concentration of 1× 10^−4–10^−5 C.F.U. The synthesized compounds and standard drug Ampicillin were prepared by two fold serial dilutions to obtain the required concentrations of 400, 200, 100, 50, 25, 12.5, 6.25 and 3.13 μg/mL. The tubes were incubated in BOD incubators at 37± 1 °C for bacteria. The MICs were recorded by visual observations after 24 h (for bacteria) of incubation.

[9] = tested on: Escherichia coli (NCIM-2256); experiment: In vitro antibacterial activity, MIC; type: cell-based; settings: average of three readings; for MIC: Escherichia coli, NCIM2256
Experimental: as §4, §5, §6

[10] = tested on: Staphylococcus aureus (NCIM-2901); experiment: In vitro antibacterial activity, MIC; type: cell-based; settings: average of three readings; for MIC: Staphylococcus aureus, NCIM2901
Experimental: as §4, §5, §6

Structure (SMILES)	MIC [1]	MIC [2]	MIC [3]	MIC [4]	MIC [5]	MIC [6]	MIC [7]	MIC [8]	MIC [9]	MIC [10]	melting point	MIC Bacillus subtilis [8]	MIC Escherichia coli [9]	MIC Staphylococcus aureus [10]
COc1cc(C(c2c(O)c3ccccc3oc2=O)N(C2CCCCC2)C2CCCCC2)cc(OC)c1OC (stereo not shown) [Compound 4h, 3-((Dicyclohexylamino)(3,4,5-trimethoxyphenyl)methyl)-4-hydroxy-2H-chromen-2-one]	38 µg/mL (≈ 72.8 µM)	50 µg/mL (≈ 95.8 µM)	34 µg/mL (≈ 65.2 µM)	48 µg/mL (≈ 92 µM)	64 µg/mL (≈ 123 µM)	34 µg/mL (≈ 65.2 µM)	45 µg/mL (≈ 86.3 µM)	68 µg/mL (≈ 130 µM)	68 µg/mL (≈ 130 µM)	66 µg/mL (≈ 127 µM)	136 to 138 °C	–	–	–
O=c1oc2ccccc2c(O)c1C(c1ccco1)N(C1CCCCC1)C1CCCCC1 (stereo not shown) [Compound 4o, 3-((Dicyclohexylamino)(furan-2-yl)methyl)-4-hydroxy-2H-chromen-2-one]	46 µg/mL (≈ 109 µM)	65 µg/mL (≈ 154 µM)	49 µg/mL (≈ 116 µM)	56 µg/mL (≈ 133 µM)	55 µg/mL (≈ 130 µM)	48 µg/mL (≈ 114 µM)	55 µg/mL (≈ 130 µM)	74 µg/mL (≈ 176 µM)	66 µg/mL (≈ 157 µM)	70 µg/mL (≈ 166 µM)	148 to 150 °C	–	–	–
O=c1oc2ccccc2c(O)c1C(c1ccccn1)N(C1CCCCC1)C1CCCCC1 (stereo not shown) [Compound 4m, 3-((Dicyclohexylamino)(pyridin-2-yl)methyl)-4-hydroxy-2H-chromen-2-one]	25 µg/mL (≈ 57.8 µM)	45 µg/mL (≈ 104 µM)	22 µg/mL (≈ 50.9 µM)	48 µg/mL (≈ 111 µM)	46 µg/mL (≈ 106 µM)	28 µg/mL (≈ 64.7 µM)	40 µg/mL (≈ 92.5 µM)	74 µg/mL (≈ 171 µM)	68 µg/mL (≈ 157 µM)	78 µg/mL (≈ 180 µM)	148 to 150 °C	–	–	–
O=c1oc2ccccc2c(O)c1C(c1ccc(O)cc1)N(C1CCCCC1)C1CCCCC1 (stereo not shown) [Compound 4i, 3-((Dicyclohexylamino)(4-hydroxyphenyl)methyl)-4-hydroxy-2H-chromen-2-one]	25 µg/mL (≈ 55.9 µM)	42 µg/mL (≈ 93.8 µM)	28 µg/mL (≈ 62.6 µM)	32 µg/mL (≈ 71.5 µM)	35 µg/mL (≈ 78.2 µM)	24 µg/mL (≈ 53.6 µM)	35 µg/mL (≈ 78.2 µM)	66 µg/mL (≈ 147 µM)	64 µg/mL (≈ 143 µM)	67 µg/mL (≈ 150 µM)	128 to 130 °C	–	–	–
O=c1oc2ccccc2c(O)c1C(c1c(Cl)cccc1Cl)N(C1CCCCC1)C1CCCCC1 (stereo not shown) [Compound 4c, 3-((2,6-Dichlorophenyl)(dicyclohexylamino)methyl)-4-hydroxy-2H-chromen-2-one]	15 µg/mL (≈ 30 µM)	28 µg/mL (≈ 55.9 µM)	18 µg/mL (≈ 36 µM)	30 µg/mL (≈ 59.9 µM)	28 µg/mL (≈ 55.9 µM)	14 µg/mL (≈ 28 µM)	35 µg/mL (≈ 69.9 µM)	48 µg/mL (≈ 95.9 µM)	50 µg/mL (≈ 99.9 µM)	50 µg/mL (≈ 99.9 µM)	126 to 128 °C	48 µg/mL (≈ 95.9 µM)	50 µg/mL (≈ 99.9 µM)	50 µg/mL (≈ 99.9 µM)
Clc1ccc(COC(Cn2ccnc2)c2ccc(Cl)cc2Cl)c(Cl)c1 (stereo not shown) [Miconazole, reference compound]	12 µg/mL (≈ 28.8 µM)	35 µg/mL (≈ 84.1 µM)	12 µg/mL (≈ 28.8 µM)	25 µg/mL (≈ 60.1 µM)	25 µg/mL (≈ 60.1 µM)	12 µg/mL (≈ 28.8 µM)	25 µg/mL (≈ 60.1 µM)	–	–	–	–	–	–	–
CCOc1cc(C(c2c(O)c3ccccc3oc2=O)N(C2CCCCC2)C2CCCCC2)ccc1O (stereo not shown) [Compound 4l, 3-((Dicyclohexylamino)(3-ethoxy-4-hydroxyphenyl)methyl)-4-hydroxy-2H-chromen-2-one]	15 µg/mL (≈ 30.5 µM)	36 µg/mL (≈ 73.2 µM)	12 µg/mL (≈ 24.4 µM)	25 µg/mL (≈ 50.9 µM)	28 µg/mL (≈ 57 µM)	12 µg/mL (≈ 24.4 µM)	28 µg/mL (≈ 57 µM)	54 µg/mL (≈ 110 µM)	56 µg/mL (≈ 114 µM)	54 µg/mL (≈ 110 µM)	140 to 142 °C	–	–	–
COc1ccc(C(c2c(O)c3ccccc3oc2=O)N(C2CCCCC2)C2CCCCC2)cc1OC (stereo not shown) [Compound 4g, 3-((Dicyclohexylamino)(3,4-dimethoxyphenyl)methyl)-4-hydroxy-2H-chromen-2-one]	24 µg/mL (≈ 48.8 µM)	52 µg/mL (≈ 106 µM)	20 µg/mL (≈ 40.7 µM)	50 µg/mL (≈ 102 µM)	57 µg/mL (≈ 116 µM)	26 µg/mL (≈ 52.9 µM)	35 µg/mL (≈ 71.2 µM)	60 µg/mL (≈ 122 µM)	62 µg/mL (≈ 126 µM)	62 µg/mL (≈ 126 µM)	138 to 140 °C	–	–	–
O=c1oc2ccccc2c(O)c1C(c1ccccc1)N(C1CCCCC1)C1CCCCC1 (stereo not shown) [Compound 4a, 3-((Dicyclohexylamino)(phenyl)methyl)-4-hydroxy-2H-chromen-2-one]	38 µg/mL (≈ 88 µM)	84 µg/mL (≈ 195 µM)	43 µg/mL (≈ 99.6 µM)	66 µg/mL (≈ 153 µM)	58 µg/mL (≈ 134 µM)	54 µg/mL (≈ 125 µM)	55 µg/mL (≈ 127 µM)	68 µg/mL (≈ 158 µM)	70 µg/mL (≈ 162 µM)	65 µg/mL (≈ 151 µM)	112 to 114 °C	–	–	–
COc1ccc(C(c2c(O)c3ccccc3oc2=O)N(C2CCCCC2)C2CCCCC2)cc1 (stereo not shown) [Compound 4f, 3-((Dicyclohexylamino)(4-methoxyphenyl)methyl)-4-hydroxy-2H-chromen-2-one]	20 µg/mL (≈ 43.3 µM)	44 µg/mL (≈ 95.3 µM)	22 µg/mL (≈ 47.7 µM)	43 µg/mL (≈ 93.2 µM)	57 µg/mL (≈ 123 µM)	20 µg/mL (≈ 43.3 µM)	39 µg/mL (≈ 84.5 µM)	58 µg/mL (≈ 126 µM)	64 µg/mL (≈ 139 µM)	55 µg/mL (≈ 119 µM)	133 to 135 °C	–	–	–
CC1(C)S[C@@H]2[C@H](NC(=O)[C@H](N)c3ccccc3)C(=O)N2[C@H]1C(=O)O [Ampicillin, reference compound]	–	–	–	–	–	–	–	50 µg/mL (≈ 143 µM)	50 µg/mL (≈ 143 µM)	50 µg/mL (≈ 143 µM)	–	–	–	–
